{"source": "patent US5112810A", "about": "“Method for treating multiple sclerosis” (Mitsui Pharmaceuticals, Inc., priority 1981, dated 1992)", "tested_on": "male Hartley guinea pig", "assay": "Toxicity (Experiment 3)", "format": "in vivo", "conditions": "FTS 100 mg/kg", "protocol": "Toxicity was studied by treating a male Hartley guinea pig with FTS at a dose of 100 mg/kg and observing the animal for one-week. This animal was still alive at the end of one-week observation period.", "note": "Where a SMILES comes first, the peptide text is derived from it. [ ]: non-standard residue; d: D form. pGlu = O=C1CC[C@@H](C(=O)O)N1"}
{"compound": "C[C@H](NC(=O)[C@@H]1CCC(=O)N1)C(=O)N[C@@H](CCCCN)C(=O)N[C@@H](CO)C(=O)N[C@@H](CCC(N)=O)C(=O)NCC(=O)NCC(=O)N[C@@H](CO)C(=O)N[C@@H](CC(N)=O)C(=O)O", "note": "[FTS, p-Glu-Ala-Lys-Ser-Gln-Gly-Gly-Ser-Asn-Oh] ([pGlu]AKSQGGSN-OH)", "values": [{"measurement": "Toxicity: survival at the end of one-week observation", "result": "still alive"}]}
